Experimental data as given in patent publication US9938281B2 (Merck Sharp & Dohme Corp., priority 2012, dated 2018).

Key:
PI3K-delta = target: T1, PI3K-delta (Homo sapiens, UniProt O00329); assay: HTRF PI3K biochemical assay, delta isoform; conditions: form screened (neutral or TFA salt) given, read-out: PI3Kdelta IC50
T1 construct: purchased Upstate; Millipore 14-604

PI3K-alpha = target: T2, PI3K-alpha (Homo sapiens, UniProt P42336); assay: HTRF PI3K biochemical assay, alpha isoform; conditions: ratio PI3K-alpha IC50 value / PI3K-delta IC50 value
T2 construct: purchased Upstate; Millipore 14-602
T2 sequence (P42336 whole entry, canonical isoform): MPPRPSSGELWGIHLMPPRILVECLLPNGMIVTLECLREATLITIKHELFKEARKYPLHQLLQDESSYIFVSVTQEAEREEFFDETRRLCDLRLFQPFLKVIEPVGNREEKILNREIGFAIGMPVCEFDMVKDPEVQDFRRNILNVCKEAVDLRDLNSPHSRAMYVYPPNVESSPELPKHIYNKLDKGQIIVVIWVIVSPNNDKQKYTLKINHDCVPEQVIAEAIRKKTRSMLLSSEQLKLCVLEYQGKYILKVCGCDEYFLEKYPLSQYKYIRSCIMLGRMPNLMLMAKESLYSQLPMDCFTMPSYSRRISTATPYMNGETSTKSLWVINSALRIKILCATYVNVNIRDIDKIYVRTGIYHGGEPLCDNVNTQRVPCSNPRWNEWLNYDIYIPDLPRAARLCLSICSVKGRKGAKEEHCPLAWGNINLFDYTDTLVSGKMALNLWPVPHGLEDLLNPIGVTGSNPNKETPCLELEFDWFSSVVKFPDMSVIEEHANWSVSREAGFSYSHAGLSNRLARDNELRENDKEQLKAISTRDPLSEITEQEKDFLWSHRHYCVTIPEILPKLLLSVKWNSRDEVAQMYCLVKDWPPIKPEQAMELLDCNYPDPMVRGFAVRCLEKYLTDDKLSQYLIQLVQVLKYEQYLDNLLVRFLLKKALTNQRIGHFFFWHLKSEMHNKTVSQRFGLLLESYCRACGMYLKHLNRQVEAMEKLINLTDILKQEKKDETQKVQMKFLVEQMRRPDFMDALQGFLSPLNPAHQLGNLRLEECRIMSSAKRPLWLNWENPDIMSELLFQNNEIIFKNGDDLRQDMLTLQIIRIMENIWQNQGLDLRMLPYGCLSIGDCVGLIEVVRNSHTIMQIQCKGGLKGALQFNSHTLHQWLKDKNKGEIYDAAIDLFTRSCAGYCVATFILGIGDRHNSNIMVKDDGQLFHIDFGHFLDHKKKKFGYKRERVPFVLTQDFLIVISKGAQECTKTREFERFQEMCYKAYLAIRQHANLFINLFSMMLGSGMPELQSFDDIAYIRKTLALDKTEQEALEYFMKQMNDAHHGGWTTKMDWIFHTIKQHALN
T2 sequence (P27986 whole entry partner, canonical isoform): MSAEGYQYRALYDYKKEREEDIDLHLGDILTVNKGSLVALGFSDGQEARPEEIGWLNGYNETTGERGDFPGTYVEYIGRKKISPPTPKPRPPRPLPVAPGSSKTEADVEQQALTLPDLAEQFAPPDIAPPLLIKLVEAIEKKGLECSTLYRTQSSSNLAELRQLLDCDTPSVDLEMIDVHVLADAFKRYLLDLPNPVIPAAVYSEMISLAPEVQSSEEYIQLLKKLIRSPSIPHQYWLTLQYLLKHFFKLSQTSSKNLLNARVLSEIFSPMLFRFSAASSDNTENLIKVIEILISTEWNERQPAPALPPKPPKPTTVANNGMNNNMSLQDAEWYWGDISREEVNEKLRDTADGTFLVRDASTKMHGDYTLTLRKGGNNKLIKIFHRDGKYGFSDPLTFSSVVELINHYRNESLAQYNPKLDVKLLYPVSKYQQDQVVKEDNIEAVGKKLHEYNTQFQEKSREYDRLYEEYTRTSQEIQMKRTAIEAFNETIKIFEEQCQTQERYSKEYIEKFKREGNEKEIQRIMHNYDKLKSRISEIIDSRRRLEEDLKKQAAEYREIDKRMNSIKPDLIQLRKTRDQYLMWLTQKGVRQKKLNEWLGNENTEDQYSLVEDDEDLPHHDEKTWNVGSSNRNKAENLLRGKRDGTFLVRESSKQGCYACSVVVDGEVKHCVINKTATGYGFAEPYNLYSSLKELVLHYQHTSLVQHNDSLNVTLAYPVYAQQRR

T1 sequence (O00329 whole entry, canonical isoform): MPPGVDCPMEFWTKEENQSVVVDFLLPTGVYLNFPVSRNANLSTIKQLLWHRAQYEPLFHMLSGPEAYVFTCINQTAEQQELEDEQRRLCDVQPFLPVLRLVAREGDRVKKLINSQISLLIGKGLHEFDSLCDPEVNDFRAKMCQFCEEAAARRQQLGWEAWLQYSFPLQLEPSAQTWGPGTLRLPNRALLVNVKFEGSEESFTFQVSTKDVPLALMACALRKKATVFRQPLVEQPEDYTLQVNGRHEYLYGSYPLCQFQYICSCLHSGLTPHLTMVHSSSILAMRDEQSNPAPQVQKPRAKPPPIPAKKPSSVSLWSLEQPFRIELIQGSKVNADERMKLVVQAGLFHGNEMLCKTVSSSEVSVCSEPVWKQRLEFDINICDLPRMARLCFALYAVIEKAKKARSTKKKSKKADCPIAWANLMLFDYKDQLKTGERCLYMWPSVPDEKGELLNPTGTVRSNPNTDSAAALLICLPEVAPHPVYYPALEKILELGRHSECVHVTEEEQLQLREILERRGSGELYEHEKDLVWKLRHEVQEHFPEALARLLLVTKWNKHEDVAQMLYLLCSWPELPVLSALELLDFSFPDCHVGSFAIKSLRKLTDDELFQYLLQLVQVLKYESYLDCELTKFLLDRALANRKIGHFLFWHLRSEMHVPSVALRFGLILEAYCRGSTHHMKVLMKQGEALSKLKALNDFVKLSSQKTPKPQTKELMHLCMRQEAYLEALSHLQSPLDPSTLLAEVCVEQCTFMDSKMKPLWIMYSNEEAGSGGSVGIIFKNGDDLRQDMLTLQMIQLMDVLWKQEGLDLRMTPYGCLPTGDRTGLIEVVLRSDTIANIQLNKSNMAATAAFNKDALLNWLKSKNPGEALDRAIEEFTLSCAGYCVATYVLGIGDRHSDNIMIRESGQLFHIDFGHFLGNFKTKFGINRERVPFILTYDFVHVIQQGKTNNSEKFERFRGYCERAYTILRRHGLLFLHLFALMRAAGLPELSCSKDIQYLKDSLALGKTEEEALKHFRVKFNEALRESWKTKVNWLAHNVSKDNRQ
T1 sequence (P27986 whole entry partner, canonical isoform): as the sequence (P27986 whole entry partner, canonical isoform) above

Row | Structure (SMILES) | IC50 (PI3K-delta) [nM] | Selectivity versus PI3Kalpha (PI3K-alpha)
1 | CCn1c(-c2cnc(C)nc2)nc2c(N[C@H]3CCN(C(=O)C4CC(O)C4)C3)ncnc21 (mixture of isomers) [Compound 2-63, (cis and trans)-3-{[(3S)-3-{[9-ethyl-8-(2-methylpyrimidin-5-yl)-9H-purin-6-yl]amino}pyrrolidin-1-yl]carbonyl}cyclobutanol] | < 1 | >10
2 | CCn1c(-c2cnc(C)nc2)nc2c(NC3CN(C(=O)OC(C)(C)C)CC3O)ncnc21 (racemic) [Compound 1-15, ((3R,4R) and (3S,4S))-tert-butyl 3-{[9-ethyl-8-(2-methylpyrimidin-5-yl)-9H-purin-6-yl]amino}-4-hydroxypyrrolidine-1-carboxylate] | 10 | >10
3 | CCn1c(-c2cnc(C)nc2)nc2c(NC3CN(C(=O)OC(C)(C)C)CC3(F)F)ncnc21 (racemic) [Compound 1-21, (R and S)-tert-butyl 4-{[9-ethyl-8-(2-methylpyrimidin-5-yl)-9H-purin-6-yl]amino}-3,3-difluoropyrrolidine-1-carboxylate] | 9.4 | >10
4 | CCn1c(-c2cnc(C)nc2)nc2c(N[C@H]3CCN(C(=O)C4CCOC(C)(C)C4)C3)ncnc21 (mixture of isomers) [Compound 2-20, ((S and R)-2,2-dimethyltetrahydro-2H-pyran-4-yl)((S)-3-((9-ethyl-8-(2-methylpyrimidin-5-yl)-9H-purin-6-yl)amino)pyrrolidin-1-yl)methanone] | 1.4 | >10
5 | CCn1c(-c2cnc(C)nc2)nc2c(NC3CN(C(=O)C4CC4)CC3(F)F)ncnc21 (racemic) [Compound 2-25, N-[(3S and 3R)-1-(cyclopropylcarbonyl)-4,4-difluoropyrrolidin-3-yl]-9-ethyl-8-(2-methylpyrimidin-5-yl)-9H-purin-6-amine] | 3.7 | >10
6 | CCn1c(-c2cnc(C)nc2)nc2c(N[C@H]3CCN(C(=O)C4CC4CF)C3)ncnc21 (mixture of isomers) [Compound 2-37, ((S)-3-((9-ethyl-8-(2-methylpyrimidin-5-yl)-9H-purin-6-yl)amino)pyrrolidin-1-yl)((1S,2S and 1R,2R)-2-(fluoromethyl)cyclopropyl) methanone] | < 1 | >10
7 | CCn1c(-c2cnc(C)nc2)nc2c(N[C@H]3CCN(C(=O)C4CC4(F)F)C3)ncnc21 (mixture of isomers) [Compound 2-55, N-{(3S)-1-[((R and S)-2,2-difluorocyclopropyl)carbonyl]pyrrolidin-3-yl}-9-ethyl-8-(2-methylpyrimidin-5-yl)-9H-purin-6-amine] | 1.5 | >10
8 | CCn1c(-c2cnc(C)nc2)nc2c(N[C@H]3CCN(C(=O)C4CC4(C)C)C3)ncnc21 (mixture of isomers) [Compound 2-56, N-{(3S)-1-[((R and S)-2,2-dimethylcyclopropyl)carbonyl]pyrrolidin-3-yl}-9-ethyl-8-(2-methylpyrimidin-5-yl)-9H-purin-6-amine] | 1 | >10
9 | CCn1c(-c2cnc(C)nc2)nc2c(N[C@H]3CCN(C(=O)C4CCC(=O)N4)C3)ncnc21 (mixture of isomers) [Compound 2-64, (R and S)-5-{[(3S)-3-{[9-ethyl-8-(2-methylpyrimidin-5-yl)-9H-purin-6-yl]amino}pyrrolidin-1-yl]carbonyl}pyrrolidin-2-one] | 6.7 | >10
10 | CCn1c(-c2cnc(C)nc2)nc2c(N[C@H]3CCN(C(=O)C4NC(=O)C4(C)C)C3)ncnc21 (mixture of isomers) [Compound 2-67, (R and S)-4-{[(3S)-3-{[9-ethyl-8-(2-methylpyrimidin-5-yl)-9H-purin-6-yl]amino}pyrrolidin-1-yl]carbonyl}-3,3-dimethylazetidin-2-one] | 1.5 | >10
11 | CCn1c(-c2cnc(C)nc2)nc2c(N[C@H]3CCN(C(=O)C4(C)CCCO4)C3)ncnc21 (mixture of isomers) [Compound 2-68, 9-ethyl-8-(2-methylpyrimidin-5-yl)-N-{(3S)-1-[((S and R)-2-methyltetrahydrofuran-2-yl)carbonyl]pyrrolidin-3-yl}-9H-purin-6-amine] | 26 | >10
12 | CCn1c(-c2cnc(C)nc2)nc2c(N[C@H]3CCN(C(=O)C4CC(=O)N(C(C)C)C4)C3)ncnc21 (mixture of isomers) [Compound 2-81, (R and S)-4-{[(3S)-3-{[9-ethyl-8-(2-methylpyrimidin-5-yl)-9H-purin-6-yl]amino}pyrrolidin-1-yl]carbonyl}-1-(1-methylethyl)pyrrolidin-2-one] | 13 | >10
13 | CCn1c(-c2cnc(C)nc2)nc2c(N[C@H]3CCN(C(=O)C4CCCCN4)C3)ncnc21 (mixture of isomers) [Compound 2-83, 9-ethyl-8-(2-methylpyrimidin-5-yl)-N-[(3S)-1-((R and S)-piperidin-2-ylcarbonyl)pyrrolidin-3-yl]-9H-purin-6-amine] | 19 | >10
14 | CCn1c(-c2cnc(C)nc2)nc2c(N[C@H]3CCN(C(=O)C4C5CCNC54)C3)ncnc21 (mixture of isomers) [Compound 2-85, N-[(3S)-1-(1(R and S), 5(R and S), 6(R and S)-2-azabicyclo[3.1.0]hex-6-ylcarbonyl)pyrrolidin-3-yl]-9-ethyl-8-(2-methylpyrimidin-5-yl)-9H-purin-6-amine] | 7.3 | >10
15 | CCn1c(-c2cnc(C)nc2)nc2c(NC3CN(C(=O)C4CC4)CC3(C)C)ncnc21 (racemic) [Compound 2-95, (R and S)-N-[1-(cyclopropylcarbonyl)-4,4-dimethylpyrrolidin-3-yl]-9-ethyl-8-(2-methylpyrimidin-5-yl)-9H-purin-6-amine] | 4.5 | >10
16 | CCn1c(-c2cnc(C)nc2)nc2c(N[C@@H]3CN(C(=O)C4CC4)C[C@H]3O)ncnc21 (racemic) [Compound 2-96, 1-(cyclopropylcarbonyl)-4-{(3R,4R) and (3S,4S)-[9-ethyl-8-(2-methylpyrimidin-5-yl)-9H-purin-6-yl]amino}pyrrolidin-3-ol] | 6 | >10
17 | CCn1c(-c2cnc(C)nc2)nc2c(N[C@H]3CCN(C(=O)C4CCCO4)C3)ncnc21 (single isomer, unassigned) [Compound 2-33, 9-ethyl-8-(2-methylpyrimidin-5-yl)-N-[(3S)-1-((R or S)-tetrahydrofuran-2-ylcarbonyl)pyrrolidin-3-yl]-9H-purin-6-amine] | – | >10
18 | CCn1c(-c2ccc(C(F)(F)F)nc2)nc2c(N[C@H]3CCN(C(=O)C4CCOC4)C3)ncnc21 (single isomer, unassigned) [Compound 2-102, 9-ethyl-N-{(3S)-1-[(3S or 3R)-tetrahydrofuran-3-ylcarbonyl]pyrrolidin-3-yl}-8-[6-(trifluoromethyl)pyridin-3-yl]-9H-purin-6-amine] | – | >10
19 | CCn1ncc(-c2nc3c(N[C@@H]4CCN(C(=O)c5nc(C)oc5C)C4)ncnc3n2C)c1C [Compound 2-2, N-{(3R)-1-[(2,5-dimethyl-1,3-oxazol-4-yl)carbonyl]pyrrolidin-3-yl}-8-(1-ethyl-5-methyl-1H-pyrazol-4-yl)-9-methyl-9H-purin-6-amine] | 52 | –
